Non-standard residues stand in square brackets, D forms with d. No end group written: not given here. βAla = NCCC(=O)O
Assays:
[1] = biological target: T1, soluble human FcRn (Homo sapiens, UniProt P55899); assay: Equilibrium binding constants (KD) by surface plasmon resonance (Biacore); conditions: pH 6
T1 construct: made in house; host or cells: Chinese hamster ovary (CHO) cells, glutamine synthetase expression system
Protocol: The following steps were performed to cross-link soluble human or cynomolgus FcRn to the dextran surface of a CM5 sensor chip (Biacore AB, Uppsala, Sweden) by an amine coupling reaction involving 1-ethyl-(3-dimethylaminopropyl)-carbodiimide hydrochloride (EDC) (Biacore AB, Uppsala, Sweden) and N-hydroxysuccinimide (NHS) (Biacore AB, Uppsala, Sweden) as recommended by Biacore (BIAapplications Handbook, version AB, section 4.2, Biacore AB, Uppsala, Sweden). The FcRn protein was diluted in 50 mM sodium acetate, pH 4.5 (Biacore AB, Uppsala, Sweden) to a concentration of 10 to 30 μg/ml and used to coat one flow cell on the sensor chip. Residual sites on the FcRn flow cell were blocked with 1 M ethanolamine hydrochloride pH 8.5 (Biacore AB, Uppsala, Sweden). A control flow cell was blocked with ethanolamine for reference subtraction. For analysis of the monomeric peptides, FcRn was coated to a final density of 4000-5000 response units (RU). For analysis of the peptide dimers, FcRn was coated to a density of 2000-2500 RU. […]
Ten 2-fold dilutions of the peptide were injected over the FcRn-CM5 chip at a rate of 20 μl/min for 2 min. […] Sensorgrams were generated and analyzed using BiaEval software version 3.1 (Biacore AB, Uppsala, Sweden). […]
Sensorgrams were generated and analyzed using BiaEval software version 3.1 (Biacore AB, Uppsala, Sweden). […]

[2] = biological target: T2, soluble human FcRn (shFcRn) (Homo sapiens, UniProt P55899); format: binding; conditions: IgG competition ELISA, 3 nM human IgG, buffer pH 6
T2 construct: made in house; host or cells: Chinese hamster ovary (CHO) cells, glutamine synthetase expression system
T2 sequence (P61769 21-119): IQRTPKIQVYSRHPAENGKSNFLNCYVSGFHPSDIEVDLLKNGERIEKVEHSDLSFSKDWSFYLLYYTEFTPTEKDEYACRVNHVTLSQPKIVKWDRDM
T2 sequence (P55899 24-297): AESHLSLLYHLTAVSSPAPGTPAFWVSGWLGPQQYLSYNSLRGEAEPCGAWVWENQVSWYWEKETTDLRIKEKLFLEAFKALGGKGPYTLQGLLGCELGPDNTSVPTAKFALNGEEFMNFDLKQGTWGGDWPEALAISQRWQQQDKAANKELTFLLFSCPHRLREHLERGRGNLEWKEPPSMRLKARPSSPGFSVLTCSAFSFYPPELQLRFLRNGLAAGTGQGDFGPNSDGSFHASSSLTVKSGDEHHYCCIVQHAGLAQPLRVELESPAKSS
Protocol: A solution of soluble human FcRn (shFcRn) in Tris buffer was dialyzed twice, each time for 3 hours in 2 liters of PBS, pH 8.0. The quantity of recovered shFcRn was determined by measuring the absorbance at 280 nm. […] Biotinylation of shFcRn was accomplished by treating the dialyzed shFcRn with a 2-fold-molar excess of Sulfo-NHS-LC-Biotin (Invitrogen, Carlsbad, Calif.) for 2 hours at 4° C. Afterwards, the shFcRn-Sulfo-NHS-LC-Biotin reaction mixture was dialyzed twice in 2 L of cold PBS, followed by another absorbance reading to determine the concentration of the remaining protein. The biotinylated shFcRn was stored at 4° C. with 0.1% sodium azide until needed.
The wells were coated with 100 μl/well of 1 μg/ml biotinylated-shFcRn in Buffer A. The plate was sealed and incubated at 37° C. for 2 hours. Afterwards, the plate was washed with 200 μl/well of Buffer B (Buffer B: 100 mM MES pH 6, 150 mM NaCl, 0.5% BSA IgG-free (Jackson ImmunoResearch, West Grove, Pa.), 0.05% Tween-20). Then, 50 μl/well of 6 nM human IgG (Calbiochem, San Diego, Calif.) in Buffer B as well as 50 μl/well of the various peptide competitors (at various concentration) were added, so that the final concentration of IgG in the well was 3 nM. […] Once color developed, 100 μl/well of TMB stop solution (KPL, Gaithersburg, Md.) was added and the absorbance was measured at 450 nm.

T1 sequence (P55899 24-297): as above
T1 sequence (P61769 21-119, further chain): as the sequence (P61769 21-119) above

With “QRFCGHF[βAla]LYPCNGP (cysteine pairing not given here) [Peptide No. 25]” the Kd [1] was > 250 µM and the IC50 [2] was > 125 µM.

From patent publication US8906844B2 (SYNTONIX PHARMACEUTICALS, dated 2014)
